# Patent publication US20050009840A1 (SUGEN, INC., priority 2003, published 2005)
# Molecular target: T1, Met kinase domain (GST fusion protein) (Homo sapiens, UniProt P08581)
# T1 construct: Purified GST fusion protein containing the Met kinase domain
# Assay: Met transphosphorylation assay (ELISA, poly(glu-tyr) substrate);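 note: Cell-free ELISA with plate-bound poly(Glu:Tyr 4:1) phosphorylated by GST-fused Met kinase domain plus ATP and Mn2+, phosphotyrosine detected by anti-phosphotyrosine antibody with HRP and ABTS read-out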
# Format: biochemical
# Settings: read-out: Met IC50
# T1 sequence (P08581 1078-1345 limits assumed): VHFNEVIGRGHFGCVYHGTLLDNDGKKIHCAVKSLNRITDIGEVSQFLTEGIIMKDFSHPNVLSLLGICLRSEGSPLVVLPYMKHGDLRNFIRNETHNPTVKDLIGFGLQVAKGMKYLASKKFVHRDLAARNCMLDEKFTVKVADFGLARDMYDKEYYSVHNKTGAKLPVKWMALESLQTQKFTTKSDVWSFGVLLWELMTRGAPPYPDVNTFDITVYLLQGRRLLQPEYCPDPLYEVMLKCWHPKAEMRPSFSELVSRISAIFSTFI
row,Structure (SMILES),IC50 [nM]
1,"Nc1ncc(-c2cccc(C(=O)N3CCC[C@@H]3CN3CCCC3)c2)cc1OCc1c(Cl)cccc1Cl [Example I-54, {3-(6-Amino-5-(2,6-dichloro-benzyloxy)-pyridin-3-yl]-phenyl}-[(2R)-2-pyrrolidin-1-ylmethyl-pyrrolidin-1-yl]-methanone]",2500
2,"Nc1ncc(-c2ccc(OCC(=O)N3CCC[C@@H]3CN3CCCC3)cc2)cc1OCc1c(Cl)cccc1Cl [Example I-56, 2-{4-[6-Amino-5-(2,6-dichloro-benzyloxy)-pyridin-3-yl]-phenoxy}-1-[(2R)-2-pyrrolidin-1-ylmethyl-pyrrolidin-1-yl]-ethanone]",530
3,"Nc1ncc(-c2ccc(OCC(=O)N3CCC[C@H]3CN3CCCC3)cc2)cc1OCc1c(Cl)cccc1Cl [Example I-57, 2-{4-[6-Amino-5-(2,6-dichloro-benzyloxy)-pyridin-3-yl]-phenoxy}-1-[(2S)-2-pyrrolidin-1-ylmethyl-pyrrolidin-1-yl]-ethanone]",500
4,"CN1CC=C(c2c[nH]c3ccc(-c4cnc(N)c(OCc5c(Cl)cccc5Cl)c4)cc23)CC1 [Example I-59, 3-(2,6-Dichloro-benzyloxy)-5-[3-(1-methyl-1,2,3,6-tetrahydro-pyridin-4-yl)-1H-indol-5-yl]-pyridin-2-ylamine]",1570
5,CC(C)(C)OC(=O)N[C@@H]1CCN(Cc2c[nH]c3ccc(-c4cnc(N)c(OCc5c(Cl)cccc5Cl)c4)cc23)C1 [Example I-65],6300
6,"C[C@@H]1CN(Cc2c[nH]c3ccc(-c4cnc(N)c(OCc5c(Cl)cccc5Cl)c4)cc23)C[C@H](C)O1 [Example I-66, 3-(2,6-Dichloro-benzyloxy)-5-[3-(2,6-dimethyl-morpholin-4-ylmethyl)-1H-indol-5-yl]-pyridin-2-ylamine]",> 20000
7,"CC(=O)N[C@@H]1CCN(Cc2c[nH]c3ccc(-c4cnc(N)c(OCc5c(Cl)cccc5Cl)c4)cc23)C1 [Example I-67, N-(1-{5-[6-Amino-5-(2,6-dichloro-benzyloxy)-pyridin-3-yl]-1H-indol-3-ylmethyl}-(3R)-pyrrolidin-3-yl)-acetamide]",1790
8,"CC(=O)N1CCN(Cc2c[nH]c3ccc(-c4cnc(N)c(OCc5c(Cl)cccc5Cl)c4)cc23)CC1 [Example I-68, 1-(4-{5-[6-Amino-5-(2,6-dichloro-benzyloxy)-pyridin-3-yl]-1H-indol-3-ylmethyl}-piperazin-1-yl)-ethanone]",2180
9,"CC(=O)N1CCN(Cc2c[nH]c3ccc(-c4cnc(N)c(OCc5c(F)ccc(F)c5Cl)c4)cc23)CC1 [Example I-70, 1-(4-{5-[6-Amino-5-(2-chloro-3,6-difluoro-benzyloxy)-pyridin-3-yl]-1H-indol-3-ylmethyl}-piperazin-1-yl)-ethanone]",800
10,"C[C@@H]1CN(Cc2c[nH]c3ccc(-c4cnc(N)c(OCc5c(F)ccc(F)c5Cl)c4)cc23)C[C@H](C)O1 [Example I-71, 3-(2-Chloro-3,6-difluoro-benzyloxy)-5-[3-(2,6-dimethyl-morpholin-4-ylmethyl)-1H-indol-5-yl]-pyridin-2-ylamine]",2710
11,"CC(=O)N[C@H]1CCN(Cc2c[nH]c3ccc(-c4cnc(N)c(OCc5c(F)ccc(F)c5Cl)c4)cc23)C1 [Example I-72, N-(1-{5-[6-Amino-5-(2-chloro-3,6-difluoro-benzyloxy)-pyridin-3-yl]-1H-indol-3-ylmethyl}-(3S)-pyrrolidin-3-yl)-acetamide]",950
12,"Nc1ncc(-c2ccc3[nH]cc(CN4CCCCC4)c3c2)cc1OCc1c(F)ccc(F)c1Cl [Example I-73, 3-(2-Chloro-3,6-difluoro-benzyloxy)-5-(3-piperidin-1-ylmethyl-1H-indol-5-yl)-pyridin-2-ylamine]",740
13,"Nc1ncc(-c2ccc3[nH]cc(CN4CCOCC4)c3c2)cc1OCc1c(F)ccc(F)c1Cl [Example I-74, 3-(2-Chloro-3,6-difluoro-benzyloxy)-5-(3-morpholin-4-ylmethyl-1H-indol-5-yl)-pyridin-2-ylamine]",1400
14,"Nc1ncc(-c2ccc3[nH]cc(CN4CCCC4)c3c2)cc1OCc1c(F)ccc(F)c1Cl [Example I-75, 3-(2-Chloro-3,6-difluoro-benzyloxy)-5-(3-pyrrolidin-1-ylmethyl-1H-indol-5-yl)-pyridin-2-ylamine]",700
15,"CN(C)[C@@H]1CCN(C(=O)c2cc3cc(-c4cnc(N)c(OCc5c(Cl)cccc5Cl)c4)ccc3[nH]2)C1 [Example I-79, {5-[6-Amino-5-(2,6-dichloro-benzyloxy)-pyridin-3-yl]-1H-indol-2-yl}-[(3R)-3-dimethylamino-pyrrolidin-1-yl]-methanone]",180
16,"Nc1ncc(-c2ccc3[nH]c(C(=O)N4CCC[C@@H]4CN4CCCC4)cc3c2)cc1OCc1c(Cl)cccc1Cl [Example I-80, {5-[6-Amino-5-(2,6-dichloro-benzyloxy)-pyridin-3-yl]-1H-indol-2-yl}-[(2R)-2-pyrrolidin-1-ylmethyl-pyrrolidin-1-yl]-methanone]",79
17,"CC(C)(C)OC(=O)N[C@H]1CCN(C(=O)c2cc3cc(-c4cnc(N)c(OCc5c(Cl)cccc5Cl)c4)ccc3[nH]2)C1 [Example I-83, (1-{5-[6-Amino-5-(2,6-dichloro-benzyloxy)-pyridin-3-yl]-1H-indole-2-carbonyl}-- (3S)-pyrrlidin-3-yl)-carbamic acid tert-butyl ester]",5000

# Other lines, results leading:
row,IC50 [nM],Structure (SMILES)
1,370,"Nc1ncc(-c2ccc(C(=O)N3CCC[C@@H]3CNCC3CC3)cc2)cc1OCc1c(Cl)cccc1Cl [Example I-49, {4-[6-Amino-5-(2,6-dichloro-benzyloxy)-pyridin-3-yl]-phenyl}-{(2R)-2-[(cyclopropylmethyl-amino)-methyl]-pyrrolidin-1-yl}-methanone]"
2,290,"Nc1ncc(-c2ccc(C(=O)N(CC3CC3)C[C@H]3CCCN3)cc2)cc1OCc1c(Cl)cccc1Cl [Example I-50, 4-[6-Amino-5-(2,6-dichloro-benzyloxy)-pyridin-3-yl]-N-cyclopropylmethyl-N-(2R)-pyrrolidin-2-ylmethyl-benzamide]"
3,710,"CN(CC(O)CN1CCCC1)C(=O)c1ccc(-c2cnc(N)c(OCc3c(Cl)cccc3Cl)c2)cc1 (centres unmarked) [Example I-51, 4-[6-Amino-5-(2,6-dichloro-benzyloxy)-pyridin-3-yl]-N-(2-hydroxy-3-pyrrolidin-1-yl-propyl)-N-methyl-benzamide]"
4,530,"Nc1ncc(-c2ccc(C(=O)N3CCC[C@H]3CN3CC[C@@H](O)C3)cc2)cc1OCc1c(Cl)cccc1Cl [Example I-52, {4-[6-Amino-5-(2,6-dichloro-benzyloxy)-pyridin-3-yl]-phenyl}-{(2S)-2-[(3R)-3-hydroxy-pyrrolidin-1-ylmethyl]-pyrrolidin-1-yl}-methanone]"
5,16000,"Nc1ncc(-c2cccc(C(=O)O)c2)cc1OCc1c(Cl)cccc1Cl [Example I-53, 3-[6-Amino-5-(2,6-dichloro-benzyloxy)-pyridin-3-yl]-benzoic acid]"
6,2410,"Nc1ncc(-c2ccc(OCC(=O)O)cc2)cc1OCc1c(Cl)cccc1Cl [Example I-55, {4-[6-Amino-5-(2,6-dichloro-benzyloxy)-pyridin-3-yl]-phenoxy}-acetic acid]"
7,4300,"Nc1ncc(-c2ccc3[nH]ccc3c2)cc1OCc1c(Cl)cccc1Cl [Example I-58, 3-(2,6-Dichloro-benzyloxy)-5-(1H-indol-5-yl)-pyridin-2-ylamine]"
8,3040,"CN1CCC(c2c[nH]c3ccc(-c4cnc(N)c(OCc5c(Cl)cccc5Cl)c4)cc23)CC1 [Example I-60, 3-(2,6-Dichloro-benzyloxy)-5-[3-(1-methyl-piperidin-4-yl)-1H-indol-5-yl]-pyridin-2-ylamine]"
9,1190,"Nc1ncc(-c2ccc3[nH]cc(CN4CCOCC4)c3c2)cc1OCc1c(Cl)cccc1Cl [Example I-61, 3-(2,6-Dichloro-benzyloxy)-5-(3-morpholin-4-ylmethyl-1H-indol-5-yl)-pyridin-2-ylamine]"
10,1410,"Nc1ncc(-c2ccc3[nH]cc(CN4CCCCC4)c3c2)cc1OCc1c(Cl)cccc1Cl [Example I-62, 3-(2,6-Dichloro-benzyloxy)-5-(3-piperidin-1-ylmethyl-1H-indol-5-yl)-pyridin-2-ylamine]"
11,1340,"Nc1ncc(-c2ccc3[nH]cc(CN4CCCC4)c3c2)cc1OCc1c(Cl)cccc1Cl [Example I-63, 3-(2,6-Dichloro-benzyloxy)-5-(3-pyrrolidin-1-ylmethyl-1H-indol-5-yl)-pyridin-2-ylamine]"
12,3230,"CCN(CC)Cc1c[nH]c2ccc(-c3cnc(N)c(OCc4c(Cl)cccc4Cl)c3)cc12 [Example I-64, 3-(2,6-Dichloro-benzyloxy)-5-(3-diethylaminomethyl-1H-indol-5-yl)-pyridin-2-ylamine]"
13,> 20000,"CCOC(=O)c1cc2cc(-c3cnc(N)c(OCc4c(Cl)cccc4Cl)c3)ccc2[nH]1 [Example I-76, 5-[6-Amino-5-(2,6-dichloro-benzyloxy)-pyridin-3-yl]-1H-indole-2-carboxylic acid ethyl ester]"
14,1620,"Nc1ncc(-c2ccc3[nH]c(C(=O)O)cc3c2)cc1OCc1c(Cl)cccc1Cl [Example I-77, 5-[6-Amino-5-(2,6-dichloro-benzyloxy)-pyridin-3-yl]-1H-indole-2-carboxylic acid]"
15,180,CN1CCN(C(=O)c2cc3cc(-c4cnc(N)c(OCc5c(Cl)cccc5Cl)c4)ccc3[nH]2)CC1 [Example I-78]
16,1200,"Nc1ncc(-c2ccc3[nH]c(C(=O)NCCN4CCCC4)cc3c2)cc1OCc1c(Cl)cccc1Cl [Example I-81, 5-[6-Amino-5-(2,6-dichloro-benzyloxy)-pyridin-3-yl]-1H-indole-2-carboxylic acid (2-pyrrolidin-1-yl-ethyl)-amide]"
17,1800,"Nc1ncc(-c2ccc3[nH]c(C(=O)NCCN4CCOCC4)cc3c2)cc1OCc1c(Cl)cccc1Cl [Example I-82, 5-[6-Amino-5-(2,6-dichloro-benzyloxy)-pyridin-3-yl]-1H-indole-2-carboxylic acid (2-morpholin-4-yl-ethyl)-amide]"
18,140,"Nc1ncc(-c2ccc3[nH]c(C(=O)N4CC[C@H](N)C4)cc3c2)cc1OCc1c(Cl)cccc1Cl [Example I-84, {5-(6-Amino-5-(2,6-dichloro-benzyloxy)-pyridin-3-yl]-1H-indol-2-yl}-[(3S)-amino-pyrrolidin-1-yl]-methanone]"
